Laboratory results from US8652523B2, “Oral pharmaceutical formulation in the form of a plurality of microcapsules for prolonged release of active principle(s) with slow solubility” (Flamel Technologies, priority 2002, dated 2014).
Converted amounts (≈) assume the structure as drawn.

Assays:
[1] = Increase in solubility of spironolactone in aqueous solution at pH 6.8, 25° C.; assay type: physicochemical; conditions: pH 6.8, aqueous buffer, without solubilizing agent
[2] = Method for measuring solubility of AP in aqueous solution containing solubilizing agent Cremophor RH 40 (37° C., 6 hours, filtration, HPLC); assay type: physicochemical
Experimental: The solution is stirred at 37° C. for 6 hours and then filtered through a filter with a 0.2 μm pore diameter. The content of solubilized AP is evaluated by HPLC chromatography or any other suitable analytical technique.
The ability of the solubilizing agent, made of Cremophor® RH 40, to solubilize an active principle, made up of spironolactone, is tested according to the following method for measuring solubility:
The AP is introduced into an aqueous solution containing the solubilizing agent. The solution is stirred at 37° C. for 6 hours and is then filtered through a filter with a 0.2 μm pore diameter. The content of solubilized AP is evaluated by HPLC.

solubility [1]: ~38 µg/mL (≈ 91.2 µM) | (Spironolactone) dissolved in solution ([2]; Cremophor RH 40 0 % w/w at 37° C.): <0.1 mg/mL | (Spironolactone) dissolved in solution ([2]; Cremophor RH 40 1 % w/w at 37° C.): 0.1 mg/mL | (Spironolactone) dissolved in solution ([2]; Cremophor RH 40 2 % w/w at 37° C.): 0.2 mg/mL | (Spironolactone) dissolved in solution ([2]; Cremophor RH 40 5 % w/w at 37° C.): 0.4 mg/mL | (Spironolactone) dissolved in solution ([2]; Cremophor RH 40 10 % w/w at 37° C.): 0.8 mg/mL | (Spironolactone) dissolved in solution ([2]; Cremophor RH 40 20 % w/w at 37° C.): 1.4 mg/mL
Structure (SMILES): CC(=O)S[C@@H]1CC2=CC(=O)CC[C@]2(C)[C@H]2CC[C@@]3(C)[C@@H](CC[C@@]34CCC(=O)O4)[C@H]12 [spironolactone]
